One experiment deals with ES6 (Ewing's Sarcoma). Kind of experiment: combination Emax (second highest fraction inhibited in the dose matrix, 72 h); higher = more inhibition; extreme values may be limits of the assay. Put shortly:
(§1)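 After 24 hours at 37°C and 5% CO2 in 1536-well plates, cells in DMEM/F12 or RPMI plus 10% FBS received two-drug dose matrices for 72 hours. Viability came from CellTiter-Glo 2.0 luminescence and was scaled as inhibition, anchored at 0 by vehicle wells and at 1 by blank wells. Combination Emax is taken as the second-highest inhibition in the matrix, and Bliss excess as the observed combination effect less EA + EB − EA·EB, with EA and EB the single-agent effects.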

Experiment [1] concerns ZR-75-30 (Breast Carcinoma). The description is as above. Put shortly:
as §1

A further experiment has as its system IST-MEL1 (Melanoma). The description is as above. Put shortly:
as §1

The next experiment relates to KALS-1 (Glioblastoma). The description is as above. Put shortly:
as §1

The subject of experiment [2] is MS-1 (Small Cell Lung Carcinoma). The description is as above. In a few lines: as §1
In experiment [3] the test system is P30-OHK (B-Lymphoblastic Leukemia). Described as above. Put shortly: as §1
A further experiment relates to NCI-H2373 (Mesothelioma). The description is as above. Put shortly:
as §1

Experiment [4] relates to OAW-28 (Ovarian Carcinoma). Described as above. In a few lines: as §1
Experiment [5] concerns DBTRG-05MG (Glioblastoma). The description is as above. In a few lines:
as §1

Experiment [6] deals with NAMALWA (Burkitt's Lymphoma). The experiment is described as above. Put shortly: as §1
For a further experiment, the system named is GAK (Melanoma). The experiment is described as above. In a few lines:
as §1

In experiment [7] the test system is SK-CO-1 (Colorectal Carcinoma). The description is as above. In a few lines:
as §1

The test system of the next experiment is T47D (Breast Carcinoma). The experiment is described as above. In a few lines:
as §1

The test system of experiment [8] is MM1S (Plasma Cell Myeloma). The description is as above. Put shortly: as §1
Experiment [9] relates to SiHa (Cervical Carcinoma). The experiment is described as above. Put shortly: as §1
The test system of experiment [10] is PL4 (Pancreatic Carcinoma). Described as above. Put shortly:
as §1

The test system of experiment [11] is NCI-H1341 (Small Cell Lung Carcinoma). The experiment is described as above. Put shortly:
as §1

For experiment [12], the system named is SKG-IIIa (Cervical Carcinoma). Kind of experiment: Bliss excess, mean over the matrix (fraction); higher = more synergy. Put shortly:
as §1

For experiment [13], the system named is SUP-M2 (T-Cell Non-Hodgkin's Lymphoma). Described as above. Put shortly: as §1
The subject of experiment [14] is NCI-H1341 (Small Cell Lung Carcinoma). The description is as above. Put shortly:
as §1
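For Bliss excess, mean over the matrix in this document: after 72 h of two-drug dosing.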

As to `CN(CCO)CC[C@H](CSc1ccccc1)Nc1ccc(S(=O)(=O)NC(=O)c2ccc(N3CCC([C@@H](O)c4ccccc4-c4ccc(Cl)cc4)CC3)cc2)cc1S(=O)(=O)C(F)(F)F` [AZD4320] + Cn1cnc2c(F)c(Nc3ccc(Br)cc3Cl)c(C(=O)NOCCO)cc21 [Selumetinib] (first compound max 1 µM, 7x7, partner max 3 µM), the “combination Emax” value in the experiment on ES6 (Ewing's Sarcoma) is 0.449; in experiment [1], 0.294; in the experiment with IST-MEL1 (Melanoma), 0.35; in the experiment on KALS-1 (Glioblastoma) it was 0.449; in [2], 0.533; in experiment [3], 0.99. Moreover, the “combination Emax” value in the experiment on NCI-H2373 (Mesothelioma) is 0.406; in experiment [4], 0.984; in experiment [5], 0.702; in experiment [6], 0.512; in the experiment on GAK (Melanoma) it was 0.796; in [7], 0.941. Besides, the “combination Emax” value worked out at 0.314 in the experiment with T47D (Breast Carcinoma); 0.983 in experiment [8]; 0.247 in [9]; 0.751 in [10]; 0.99 in [11]. The figures for the Bliss excess in [12], in experiment [13] and in experiment [14] were 0.0044, 0.0058 and 0.0615, respectively.
In the case of `NC1(C(=O)N[C@@H](CCO)c2ccc(Cl)cc2)CCN(c2ncnc3[nH]ccc23)CC1` [Capivasertib] + C[C@@H]1COCCN1C2=NC(=NC(=C2)C3(CC3)[S@](=N)(=O)C)C4=C5C=CNC5=NC=C4 [AZD6738] (first compound max 10 µM, 7x7, partner max 10 µM), the “combination Emax” value was determined as 0.667 in the experiment with ES6 (Ewing's Sarcoma); 0.469 in experiment [1]; 0.785 in the experiment on IST-MEL1 (Melanoma); 0.784 with KALS-1 (Glioblastoma); 0.747 in [2]; 0.936 in experiment [3]. For the same compound, the “combination Emax” value with NCI-H2373 (Mesothelioma) was found to be 0.707; in [4], 0.515; in experiment [5] it was 0.372; in [6], 0.937; in the experiment on GAK (Melanoma), 0.509; in [7], 0.668. The “combination Emax” value was found to be 0.481 with T47D (Breast Carcinoma); 0.99 in experiment [8]; 0.413 in experiment [9]; 0.777 in [10]; 0.928 in experiment [11]. The Bliss excess in [12] was -0.0602; in [13] it was 0.0523; in experiment [14], -0.0251.
In the case of `CC1(C)CCC(CN2CCN(c3ccc(C(=O)NS(=O)(=O)c4ccc(NCC5CCOCC5)c([N+](=O)[O-])c4)c(Oc4cnc5[nH]ccc5c4)c3)CC2)=C(c2ccc(Cl)cc2)C1` [Venetoclax] + C[C@@H](Nc1cc(F)cc(F)c1)c1cc(C(=O)N(C)C)cc2c(=O)cc(N3CCOCC3)oc12 [AZD8186] (first compound max 1 µM, 7x7, partner max 3 µM), the “combination Emax” value was found to be 0.198 with ES6 (Ewing's Sarcoma); 0.24 in [1]; 0.336 in the experiment with IST-MEL1 (Melanoma); 0.741 in the experiment with KALS-1 (Glioblastoma); 0.32 in experiment [2]; 0.794 in [3]. Also, the “combination Emax” value turned out to be 0.216 in the experiment on NCI-H2373 (Mesothelioma); 0.331 in experiment [4]; 0.12 in experiment [5]; 0.428 in experiment [6]; 0.242 in the experiment with GAK (Melanoma); 0.187 in [7]. The “combination Emax” value in the experiment with T47D (Breast Carcinoma) was 0.272; in experiment [8], 0.288; in [9] it was 0.243; in experiment [10] it was 0.243; in experiment [11], 0.583. The Bliss excess in [12] is -0.0248; in experiment [13], 0.0106; in [14] it was 0.0918.
As to `CC1(C)CCC(CN2CCN(c3ccc(C(=O)NS(=O)(=O)c4ccc(NCC5CCOCC5)c([N+](=O)[O-])c4)c(Oc4cnc5[nH]ccc5c4)c3)CC2)=C(c2ccc(Cl)cc2)C1` [Venetoclax] + CCN(CCO)CCCOc1ccc2c(Nc3cc(CC(=O)Nc4cccc(F)c4)[nH]n3)ncnc2c1 [AZD2811] (first compound max 1 µM, 7x7, partner max 1 µM), the “combination Emax” value in the experiment on ES6 (Ewing's Sarcoma) worked out at 0.32; in experiment [1], 0.11; in the experiment with IST-MEL1 (Melanoma) it was 0.504; in the experiment with KALS-1 (Glioblastoma) it was 0.661; in experiment [2] it was 0.34; in [3], 1. Also, the “combination Emax” value stood at 0.232 with NCI-H2373 (Mesothelioma); 0.314 in [4]; 0.228 in experiment [5]; 0.56 in experiment [6]; 0.242 in the experiment on GAK (Melanoma); 0.583 in experiment [7]. Moreover, the “combination Emax” value in the experiment with T47D (Breast Carcinoma) is 0.266; in experiment [8], 0.265; in experiment [9] it was 0.172; in [10], 0.248; in [11], 0.495. In addition, the Bliss excess in experiment [12] was found to be 0.0225; in experiment [13], 0.0126; in experiment [14], 0.0606.
Regarding `CN(CCO)CC[C@H](CSc1ccccc1)Nc1ccc(S(=O)(=O)NC(=O)c2ccc(N3CCC([C@@H](O)c4ccccc4-c4ccc(Cl)cc4)CC3)cc2)cc1S(=O)(=O)C(F)(F)F` [AZD4320] + C[C@@H]1COCCN1C2=NC(=NC(=C2)C3(CC3)[S@](=N)(=O)C)C4=C5C=CNC5=NC=C4 [AZD6738] (first compound max 1 µM, 7x7, partner max 10 µM), the “combination Emax” value in the experiment with ES6 (Ewing's Sarcoma) is 0.665; in [1], 0.286; in the experiment with IST-MEL1 (Melanoma) it was 0.941; in the experiment with KALS-1 (Glioblastoma) it was 0.939; in [2], 0.934; in experiment [3], 1. Moreover, the “combination Emax” value was determined as 0.672 in the experiment with NCI-H2373 (Mesothelioma); 0.957 in experiment [4]; 0.834 in experiment [5]; 0.928 in experiment [6]; 0.793 in the experiment on GAK (Melanoma); 0.928 in experiment [7]. Moreover, the “combination Emax” value in the experiment with T47D (Breast Carcinoma) is 0.324; in [8] it was 1; in experiment [9] it was 0.246; in [10], 0.878; in experiment [11], 1. Besides, the Bliss excess in experiment [12] is -0.0302; in experiment [13] it was -0.0128; in experiment [14], -0.0017.
On to `COc1nnc2ccc(N3CCC(c4ccc(OCCN5CCN(C)C(=O)[C@H]5C)cc4)CC3)nn12` [AZD5153] + Cc1c2c(nn1C)CSCc1cc(n(C)n1)CSc1cc(c3ccccc3c1)OCCCc1c(C(=O)O)n(C)c3c-2c(Cl)ccc13 [AZD5991] (first compound max 1 µM, 7x7, partner max 1 µM), for which the “combination Emax” value worked out at 0.45 in the experiment on ES6 (Ewing's Sarcoma); 0.29 in experiment [1]; 0.242 in the experiment on IST-MEL1 (Melanoma); 0.814 with KALS-1 (Glioblastoma); 0.961 in [2]; 1 in experiment [3]. Besides, the “combination Emax” value stood at 0.381 with NCI-H2373 (Mesothelioma); 0.666 in experiment [4]; 0.205 in experiment [5]; 0.966 in experiment [6]; 0.836 with GAK (Melanoma); 0.403 in [7]. Moreover, the “combination Emax” value in the experiment on T47D (Breast Carcinoma) came to 0.571; in experiment [8], 1; in experiment [9] it was 0.666; in experiment [10] it was 0.63; in experiment [11], 0.897. The Bliss excess in [12] was -0.0782; in experiment [13], -0.0372; in [14], 0.0366.

The values above are taken from the supplement of paper PMC11061612.
